Data from paper PMC9403976, “Elucidating the path to Plasmodium prolyl-tRNA synthetase inhibitors that overcome halofuginone resistance” (Nature Communications, 2022).
Where “and” joins values, the source holds several entries; their conditions need not be identical. Equal entries are not always repeated. Where two headings read alike, the source gives them in different places.

Experiments:
P. falciparum Dd2-2D4 = experiment: P. falciparum asexual blood stage (ABS) growth assay, SYBR Green, 72 h, wild-type parasites; type: cell-based, Plasmodium falciparum
PfcProRS = molecular target: T1, PfcProRS (Plasmodium falciparum, UniProt Q8I5R7); type: binding; conditions: for Normalized response, dose-response replicates (SI Fig 14): replicates 1-3; for PfcProRS -- best Kd: SI Fig 16a, values on -log scale
T1 construct: made in house; host or cells: E. coli SoluBL-21

HsProRS = HsProRS (Homo sapiens, UniProt P07814); experiment: TR-FRET ligand displacement assay with tracer MAT379 (CoraFluor-1-Halo and anti-His6 antibody formats); type: binding; set-up: made in house; host or cells: E. coli SoluBL-21
[1] = HsProRS (KD [nM]) mean, no added proline/ATP (-)

T1 sequence (Q8I5R7 249-746): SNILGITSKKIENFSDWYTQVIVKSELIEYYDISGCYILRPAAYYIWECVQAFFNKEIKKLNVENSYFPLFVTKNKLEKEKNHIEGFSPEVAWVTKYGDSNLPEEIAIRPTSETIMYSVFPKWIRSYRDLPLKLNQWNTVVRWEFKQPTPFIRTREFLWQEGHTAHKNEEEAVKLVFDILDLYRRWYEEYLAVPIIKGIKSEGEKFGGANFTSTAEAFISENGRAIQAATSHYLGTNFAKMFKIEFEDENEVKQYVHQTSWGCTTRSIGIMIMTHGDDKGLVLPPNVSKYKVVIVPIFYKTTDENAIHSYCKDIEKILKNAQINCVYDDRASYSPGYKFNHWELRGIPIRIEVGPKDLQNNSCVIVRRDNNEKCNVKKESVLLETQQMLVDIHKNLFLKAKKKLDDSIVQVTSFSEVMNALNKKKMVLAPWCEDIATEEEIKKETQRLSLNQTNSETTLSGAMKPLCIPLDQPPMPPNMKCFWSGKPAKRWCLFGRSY
HsProRS, sequence (P07814 996-1512): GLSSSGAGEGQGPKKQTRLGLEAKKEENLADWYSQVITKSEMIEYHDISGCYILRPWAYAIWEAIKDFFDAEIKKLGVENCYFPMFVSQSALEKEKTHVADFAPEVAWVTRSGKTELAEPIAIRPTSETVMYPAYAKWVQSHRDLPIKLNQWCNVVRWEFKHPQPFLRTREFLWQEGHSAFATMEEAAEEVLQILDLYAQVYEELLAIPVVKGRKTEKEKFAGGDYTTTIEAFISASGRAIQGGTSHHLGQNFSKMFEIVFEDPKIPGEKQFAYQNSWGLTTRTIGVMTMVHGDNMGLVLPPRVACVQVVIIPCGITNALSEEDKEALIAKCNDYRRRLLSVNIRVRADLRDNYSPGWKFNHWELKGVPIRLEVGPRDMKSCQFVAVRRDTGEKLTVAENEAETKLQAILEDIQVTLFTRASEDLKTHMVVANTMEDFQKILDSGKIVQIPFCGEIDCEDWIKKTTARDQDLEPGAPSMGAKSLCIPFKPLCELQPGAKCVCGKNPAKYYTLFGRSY

SMILES	Normalized response, dose-response replicates (SI Fig 14) (PfcProRS; Log[inhibitor] (M) -5.000)	Normalized response, dose-response replicates (SI Fig 14) (PfcProRS; Log[inhibitor] (M) -5.301)	Normalized response, dose-response replicates (SI Fig 14) (PfcProRS; Log[inhibitor] (M) -5.601)	Normalized response, dose-response replicates (SI Fig 14) (PfcProRS; Log[inhibitor] (M) -5.904)	Normalized response, dose-response replicates (SI Fig 14) (PfcProRS; Log[inhibitor] (M) -6.208)	Normalized response, dose-response replicates (SI Fig 14) (PfcProRS; Log[inhibitor] (M) -6.509)	Normalized response, dose-response replicates (SI Fig 14) (PfcProRS; Log[inhibitor] (M) -6.796)	Normalized response, dose-response replicates (SI Fig 14) (PfcProRS; Log[inhibitor] (M) -7.108)	Normalized response, dose-response replicates (SI Fig 14) (PfcProRS; Log[inhibitor] (M) -7.409)	Normalized response, dose-response replicates (SI Fig 14) (PfcProRS; Log[inhibitor] (M) -7.710)	Normalized response, dose-response replicates (SI Fig 14) (PfcProRS; Log[inhibitor] (M) -8.000)	Normalized response, dose-response replicates (SI Fig 14) (PfcProRS; Log[inhibitor] (M) -8.301)	Normalized response, dose-response replicates (SI Fig 14) (PfcProRS; Log[inhibitor] (M) -8.602)	Normalized response, dose-response replicates (SI Fig 14) (PfcProRS; Log[inhibitor] (M) -9.000)	Normalized response, dose-response replicates (SI Fig 14) (PfcProRS; Log[inhibitor] (M) -9.301)	PfcProRS -- best Kd (PfcProRS)	Kd (HsProRS; [1])	further results
CC(C)(C)OC(=O)NCCCCCC(=O)NCC1CCN(C(=O)Nc2nccnc2C(=O)NC2Cc3ccccc3C2)CC1 [compound 43]	3.94E-01 and 2.57E-01 and 2.74E-01	4.70E-01 and 4.27E-01 and 4.95E-01	6.21E-01 and 6.23E-01 and 5.88E-01	7.25E-01 and 7.36E-01 and 7.34E-01	8.39E-01 and 7.98E-01 and 7.48E-01	9.01E-01 and 9.26E-01 and 9.21E-01	8.44E-01 and 9.34E-01 and 8.61E-01	8.07E-01 and 9.41E-01 and 7.86E-01	8.06E-01 and 8.12E-01 and 9.38E-01	9.31E-01 and 8.84E-01 and 7.70E-01	9.59E-01 and 9.87E-01 and 9.57E-01	1.01E+00 and 8.79E-01 and 9.74E-01	9.04E-01 and 9.28E-01 and 9.93E-01	8.86E-01 and 8.79E-01 and 9.68E-01	8.43E-01 and 8.23E-01 and 8.26E-01	6.495	611 nM	EC50 (P. falciparum Dd2-2D4; Plasmodium falciparum, DD2, SI Fig 16b, values on -log scale, read-out: ABS - Dd2-2D4 (converted)): 3.33 µM; Kd (HsProRS; HsProRS (KD [nM]) + 100 μM proline mean, + 100 μM proline): 2280 nM
NCCCCCC(=O)NCC1CCN(C(=O)Nc2nccnc2C(=O)NC2Cc3ccccc3C2)CC1 [compound 44]	5.04E-02 and 6.61E-02 and 1.21E-01	2.04E-01 and 9.30E-02 and 7.91E-02	1.77E-01 and 2.33E-01 and 2.91E-01	3.70E-01 and 3.87E-01 and 3.95E-01	5.30E-01 and 6.18E-01 and 4.52E-01	5.98E-01 and 6.58E-01 and 5.97E-01	8.14E-01 and 8.03E-01 and 8.36E-01	7.21E-01 and 9.08E-01 and 7.69E-01	9.22E-01 and 9.63E-01 and 8.84E-01	9.26E-01 and 9.41E-01 and 9.94E-01	9.86E-01 and 9.96E-01 and 9.45E-01	1.01E+00 and 1.07E+00 and 1.09E+00	1.05E+00 and 9.10E-01 and 8.68E-01	8.54E-01 and 1.03E+00 and 1.01E+00	1.02E+00 and 8.64E-01 and 7.91E-01	6.569	1570 nM	% signal at 10 μM, wildtype (Dd2-2D4) (P. falciparum Dd2-2D4; wildtype (Dd2-2D4), 10 μM): 51.4%; Kd (HsProRS; HsProRS - best Kd, SI Fig 16a, values on -log scale): 330 nM
